Where two headings read alike, the source gives them in different places. *1 amine or outer side, *2 acyl side, *3 side chain or, on linkers, in order; H or OH if unused. Where a SMILES comes first, the peptide text is derived from it. Bridges are numbered along the chain shown (N, C = ends). [ ]: non-standard residue; d: D form. The star is where a group is joined. hPhe(3,5-F2-4-CF3) = N[C@@H](CCc1cc(F)c(C(F)(F)F)c(F)c1)C(=O)O; hPhe(3-Cl-4-CF3) = N[C@@H](CCc1ccc(C(F)(F)F)c(Cl)c1)C(=O)O; X32 = COCCN([C@@H](Cc1ccc(C(F)(F)F)cc1)C(=O)[*:2])[*:1]; NPrPhe(4-CF3) = CCCN[C@@H](Cc1ccc(C(F)(F)F)cc1)C(=O)O; X16 = CCCN([C@@H](Cc1ccc(OC)cc1)C(=O)[*:2])[*:1]; NMeGly(cPent) = CN[C@H](C(=O)O)C1CCCC1; Nva(3-Et) = CCC(CC)[C@H](N)C(=O)O; NMeD = CN[C@@H](CC(=O)O)C(=O)O; NMeL = CN[C@@H](CC(C)C)C(=O)O; Morpholide = C1CN(*)CCO1; Ac5c = NC1(C(=O)O)CCCC1; Aze = O=C(O)[C@@H]1CCN1; Sar = CNCC(=O)O
Tests used:
[1] = molecular target: GDP-bound NRAS wild-type protein (Homo sapiens, UniProt P01111); experiment: Binding to NRAS by surface plasmon resonance (SPR), Single Cycle Kinetics; settings: for NRAS/KRAS (ratio of KD value with respect to NRAS to KD value with respect to KRAS) / NRAS/KRAS (ratio of KD value for NRAS to KD value for KRAS): SPR, GDP-bound NRAS wild-type protein vs GDP-bound KRAS wild-type protein; for NRAS/KRAS (ratio of KD value with respect to GDP-bound NRAS wild-type protein to KD value with respect to KRAS): SPR KD ratio NRAS/KRAS, class symbols
Sequence of GDP-bound NRAS wild-type protein (P01111 whole entry): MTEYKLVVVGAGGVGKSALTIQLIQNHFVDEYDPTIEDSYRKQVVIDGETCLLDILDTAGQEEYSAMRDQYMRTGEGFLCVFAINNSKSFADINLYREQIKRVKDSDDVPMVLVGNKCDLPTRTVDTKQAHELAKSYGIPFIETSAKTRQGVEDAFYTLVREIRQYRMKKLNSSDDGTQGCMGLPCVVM

[2] = molecular target: GDP-bound HRAS wild-type protein (Homo sapiens, UniProt P01112); experiment: Binding to HRAS by surface plasmon resonance (SPR), Single Cycle Kinetics; settings: for HRAS/KRAS (ratio of KD value with respect to HRAS to KD value with respect to KRAS) / HRAS/KRAS (ratio of KD value for HRAS to KD value for KRAS): SPR, GDP-bound HRAS wild-type protein vs GDP-bound KRAS wild-type protein; for HRAS/KRAS (ratio of KD value with respect to GDP-bound HRAS wild-type protein to KD value with respect to KRAS): SPR KD ratio HRAS/KRAS, class symbols
Sequence of GDP-bound HRAS wild-type protein (P01112 whole entry): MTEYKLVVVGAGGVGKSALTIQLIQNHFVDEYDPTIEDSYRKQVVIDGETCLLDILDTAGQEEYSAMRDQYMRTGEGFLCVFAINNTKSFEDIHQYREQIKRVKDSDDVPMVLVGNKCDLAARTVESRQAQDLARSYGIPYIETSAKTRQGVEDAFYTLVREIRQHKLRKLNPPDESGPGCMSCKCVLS

[3] = molecular target: GDP-bound KRAS wild-type protein (Homo sapiens, UniProt P01116); experiment: Binding to KRAS by surface plasmon resonance (SPR), Single Cycle Kinetics; settings: GDP-bound KRAS wild-type protein, read-out: KRAS KD
Sequence of GDP-bound KRAS wild-type protein (P01116 whole entry): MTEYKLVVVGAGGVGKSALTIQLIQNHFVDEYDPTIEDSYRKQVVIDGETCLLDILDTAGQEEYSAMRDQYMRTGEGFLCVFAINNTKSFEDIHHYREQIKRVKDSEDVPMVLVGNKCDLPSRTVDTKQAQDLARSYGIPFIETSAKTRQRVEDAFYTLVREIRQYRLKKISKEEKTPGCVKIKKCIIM

[4] = SPR Single Cycle Kinetics, 1:1 binding model

| Compound | NRAS/KRAS (ratio of KD value with respect to NRAS to KD value with respect to KRAS) [1] | HRAS/KRAS (ratio of KD value with respect to HRAS to KD value with respect to KRAS) [2] | Kd [3, 4] | NRAS/KRAS (ratio of KD value with respect to GDP-bound NRAS wild-type protein to KD value with respect to KRAS) [1] | HRAS/KRAS (ratio of KD value with respect to GDP-bound HRAS wild-type protein to KD value with respect to KRAS) [2] | NRAS/KRAS (ratio of KD value for NRAS to KD value for KRAS) [1] | HRAS/KRAS (ratio of KD value for HRAS to KD value for KRAS) [2] | Kd ([3]; SPR, Single Cycle Kinetics) |
| --- | --- | --- | --- | --- | --- | --- | --- | --- |
| CC[C@H](C)[C@@H]1NC(=O)[C@H](CC(C)C)N(C)C(=O)C[C@@H](C(=O)N2CCOCC2)N(C)C(=O)[C@H](C2CCCC2)N(C)C(=O)C2(CCCC2)NC(=O)[C@H](C)N(CC)C(=O)[C@H](CCc2cc(F)c(C(F)(F)F)c(F)c2)NC(=O)CN(C)C(=O)[C@H](Cc2ccc(C(F)(F)F)cc2)N2CCCC[C@@H](C2=O)N(C)C(=O)CN(C)C1=O [PP0589] | B (a compound having 3 or more and less than 10 is denoted as B) | B (a compound having 3 or more and less than 10 is denoted as B) | 0.36 nM |  |  |  |  |  |
| CCCN1C(=O)[C@@H]2CCN2C(=O)CN(C)C(=O)[C@H](C(CC)CC)NC(=O)[C@H](CC(C)C)N(C)C(=O)C[C@@H](C(=O)N2CCOCC2)N(C)C(=O)[C@H](C2CCCC2)N(C)C(=O)C2(CCCC2)NC(=O)[C@@H]2CCCN2C(=O)[C@H](CCc2cc(F)c(C(F)(F)F)c(F)c2)NC(=O)CN(C)C(=O)[C@@H]1Cc1ccc(C(F)(F)F)cc1 [PP0804] ([NMeL][Nva(3-Et)][Sar][Aze][NPrPhe(4-CF3)][Sar][hPhe(3,5-F2-4-CF3)]P[Ac5c][NMeGly(cPent)][NMeD]-Morpholide; lactam N-11) | C (A compound having a KD ratio of 0.1 or more and less than 3 is denoted as C) | B (a compound having 3 or more and less than 10 is denoted as B) | 1.4 nM |  |  |  |  |  |
| CCO[C@@H]1C[C@H]2C(=O)NC3(CCC3)C(=O)N(C)[C@@H](C(CC)CC)C(=O)N(C)[C@H](C(=O)N3CCCCC3)CC(=O)N(C)[C@H]3CCC/C=C/c4ccc(cc4)C[C@@H](C(=O)N(C)CC(=O)N[C@@H](CCc4cc(F)c(C(F)(F)F)c(F)c4)C(=O)N2C1)N1CC/C=C\C[C@@H](C1=O)N(C)C(=O)CN(C1CC1)C(=O)[C@H]([C@@H](C)CC)NC3=O [PP2956] |  |  | 1.1 nM | AA (a compound having 20 or more is denoted as AA) | A (a compound having 10 or more and less than 20 is denoted as A) |  |  |  |
| CCO[C@@H]1C[C@H]2C(=O)NC3(CC(C)(C)C3)C(=O)N(C)[C@@H](C3CCCC3)C(=O)N(C)[C@H](C(=O)N(C)CC)CC(=O)N(C)[C@H]3CCCCCc4ccc(cc4)C[C@@H](C(=O)N(C)CC(=O)N[C@@H](CCc4ccc(C(F)(F)F)c(OC)c4)C(=O)N2C1)N1CC/C=C\C[C@@H](C1=O)N(C)C(=O)CN(C)C(=O)[C@H]([C@@H](C)CC)NC3=O [PP2259] |  |  |  |  |  | A (a compound having 10 or more and less than 20 is denoted as A) | B (a compound having 3 or more and less than 10 is denoted as B) | 0.12 nM |
| CCO[C@@H]1C[C@H]2C(=O)NC3(CC(C)(C)C3)C(=O)N(C)[C@@H](C3CCCC3)C(=O)N(C)[C@H](C(=O)N(C)C)CC(=O)N(C)[C@@H](C)C(=O)N[C@@H]([C@@H](C)CC)C(=O)N(C)CC(=O)N(C)[C@H]3CCCCCN(C3=O)[C@@H](Cc3ccc(C(F)(F)F)cc3)C(=O)N(C)CC(=O)N[C@@H](CCc3cc(F)c(C(F)(F)F)c(F)c3)C(=O)N2C1 [PP0723] | B (a compound having 3 or more and less than 10 is denoted as B) | B (a compound having 3 or more and less than 10 is denoted as B) | 0.47 nM |  |  |  |  |  |
| CC[C@H](C)[C@@H]1NC(=O)[C@H](CC(C)C)N(C)C(=O)C[C@@H](C(=O)N2CCOCC2)N(C)C(=O)[C@H](C2CCCC2)N(C)C(=O)C2(CCCCC2)NC(=O)[C@@H]2CCCN2C(=O)[C@H](CCc2cc(F)c(C(F)(F)F)c(F)c2)NC(=O)CN(C)C(=O)[C@H](Cc2ccc(C(F)(F)F)cc2)N2CCCC[C@@H](C2=O)N(C)C(=O)CN(C)C1=O [PP0561] | B (a compound having 3 or more and less than 10 is denoted as B) | B (a compound having 3 or more and less than 10 is denoted as B) | 0.31 nM |  |  |  |  |  |
| CCO[C@@H]1C[C@H]2C(=O)NC3(CC(C)(C)C3)C(=O)N(C)[C@@H](C3CCCC3)C(=O)N(C)[C@H](C(=O)N(C)CC)CC(=O)N(C)[C@@H](CC(C)C)C(=O)N[C@@H]([C@@H](C)CC)C(=O)N(C)CC(=O)N(C)[C@H]3C/C=C\CCN(C3=O)[C@@H](Cc3ccc(C(F)F)cc3)C(=O)N(C)CC(=O)N[C@@H](CCc3cc(F)c(C(F)(F)F)c(F)c3)C(=O)N2C1 [PP2046] |  |  |  |  |  | A (a compound having 10 or more and less than 20 is denoted as A) | A (a compound having 10 or more and less than 20 is denoted as A) | 0.063 nM |
| CCC[C@H]1C(=O)N[C@@H]([C@@H](C)CC)C(=O)N(C)CC(=O)N(C)[C@H]2C/C=C\CCN(C2=O)[C@@H](Cc2ccc(C(F)(F)F)cc2)C(=O)N(C)CC(=O)N[C@@H](CCc2ccc(C(F)(F)F)c(Cl)c2)C(=O)N2CCOC[C@H]2C(=O)NC2(CC(C)(C)C2)C(=O)N(C)[C@@H](C(CC)CC)C(=O)N(C)[C@H](C(=O)N(C)C)CC(=O)N1C [PP2929] |  |  | 2.3 nM | AA (a compound having 20 or more is denoted as AA) | A (a compound having 10 or more and less than 20 is denoted as A) |  |  |  |
| CC[C@H](C)[C@@H]1NC(=O)[C@H](CC(C)C)N(C)C(=O)C[C@@H](C(=O)N2CCOCC2)N(C)C(=O)[C@H](C2CCCC2)N(C)C(=O)C2(CCCC2)NC(=O)[C@@H]2CCCN2C(=O)[C@H](CCc2ccc(C(F)(F)F)c(Cl)c2)NC(=O)CN(C)C(=O)[C@H](Cc2ccc(OC)cc2)N2CCCCC[C@@H](C2=O)N(C)C(=O)CN(C)C1=O [PP0614] | B (a compound having 3 or more and less than 10 is denoted as B) | B (a compound having 3 or more and less than 10 is denoted as B) | 1.1 nM |  |  |  |  |  |
| CCCN1C(=O)CN(C)C(=O)CN(C)C(=O)[C@H]([C@@H](C)CC)NC(=O)[C@H](CC(C)C)N(C)C(=O)C[C@@H](C(=O)N2CCOCC2)N(C)C(=O)[C@H](C2CCCC2)N(C)C(=O)C2(CCCC2)NC(=O)[C@@H]2CCCN2C(=O)[C@H](CCc2ccc(C(F)(F)F)c(Cl)c2)NC(=O)CN(C)C(=O)[C@@H]1Cc1ccc(OC)cc1 [PP0135] ([NMeL]I[Sar][Sar][X16][Sar][hPhe(3-Cl-4-CF3)]P[Ac5c][NMeGly(cPent)][NMeD]-Morpholide; lactam N-11) |  |  | 0.75 nM |  |  | B (a compound having 3 or more and less than 10 is denoted as B) | C (A compound having a KD ratio of 0.1 or more and less than 3 is denoted as C) |  |
| C#CC[C@H]1C(=O)N[C@@H]([C@@H](C)CC)C(=O)N(C)CC(=O)N(C)[C@H]2C/C=C\CCN(C2=O)[C@@H](Cc2ccc(C(F)(F)F)cc2)C(=O)N(C)CC(=O)N[C@@H](CCc2ccc(C(F)(F)F)c(OC)c2)C(=O)N2C[C@H](OCC)C[C@H]2C(=O)NC2(CCC2)C(=O)N(C)[C@@H](C2CCCC2)C(=O)N(C)[C@H](C(=O)N(C)CCC)CC(=O)N1C [PP2059] |  |  |  |  |  | A (a compound having 10 or more and less than 20 is denoted as A) | A (a compound having 10 or more and less than 20 is denoted as A) | 0.093 nM |
| CC[C@H](C)[C@@H]1NC(=O)[C@H](CC(C)C)N(C)C(=O)C[C@@H](C(=O)N2CCOCC2)N(C)C(=O)[C@H](C2CCCC2)N(C)C(=O)C2(CCCC2)NC(=O)[C@@H]2CCCN2C(=O)[C@H](CCc2ccc(C(F)(F)F)c(Cl)c2)NC(=O)CN(C)C(=O)[C@H](Cc2ccc(C(F)(F)F)cc2)N(CCOC)C(=O)CN(C)C(=O)CN(C)C1=O [PP0132] ([NMeL]I[Sar][Sar][X32][Sar][hPhe(3-Cl-4-CF3)]P[Ac5c][NMeGly(cPent)][NMeD]-Morpholide; lactam N-11) |  |  | 0.2 nM |  |  | C (A compound having a KD ratio of 0.1 or more and less than 3 is denoted as C) | C (A compound having a KD ratio of 0.1 or more and less than 3 is denoted as C) |  |
| CCCN1C(=O)[C@H](C2CCCC2)N(C)C(=O)C2(CCC2)NC(=O)[C@@H]2C[C@@H](OCC)CN2C(=O)[C@H](CCc2cc(F)c(C(F)(F)F)c(F)c2)NC(=O)CN(C)C(=O)[C@H](Cc2ccc(C(F)(F)F)cc2)N2CCCC[C@@H](C2=O)N(C)C(=O)CN(C)C(=O)[C@H]([C@@H](C)CC)NC(=O)[C@H](CC(C)C)N(C)C(=O)C[C@H]1C(=O)N1CCOCC1 [PP0649] | C (A compound having a KD ratio of 0.1 or more and less than 3 is denoted as C) | B (a compound having 3 or more and less than 10 is denoted as B) | 0.75 nM |  |  |  |  |  |
